The record followed here is patent publication US20170233414A1, “DERIVATIVES OF BODIPY” (OREGON HEALTH & SCIENCE UNIVERSITY, priority 2016, published 2017).

The nature of the data set: Fluorescence properties and quantum yield measurements of the BAA library. It counts as physicochemical. Set-up: FWHM (full-width-at half max): unit not given here. The settings on record: anhydrous DMSO; for λmax ABS / λmax EM: polystyrene 96 well plate; for FWHM (full-width-at half max): emission; for φfl (quantum yield): relative to reference fluorophore at three concentrations. The method, then: General Instruments. Synthesized sample purification was performed with an Agilent 1260 Infinity HPLC utilizing a C18 column (150mm×21.2 mm). MS (HRMS, ESI) spectra data was collected with an Agilent 6244 TOF LC/MS with diode array detector VL+ and C18 column (4.6 mm×50 mm). Absorbance and fluorescence data were measured on a SpectraMax M5 Microplate reader. NMR spectra, ^1H and ^13C, were recorded on a Bruker ARK400 spectrometer. BAA microscopy screening in cells for organelle specificity and signal-to-background ratio was completed with an Axio Zeiss Light Microscope and 63× oil immersion objective.
Fluorescence Properties and Quantum Yield Measurements. Spectroscopic characterizations were performed in anhydrous DMSO in polystyrene 96 well plate. Analysis included the maximum absorbance wavelength, maximum fluorescence emission wavelength, full-width-at half max, and quantum yield. Quantum yields (φfl) were determined by comparing the area under the emission spectrum of the BAA compound to a reference fluorophore solution at three concentrations using equation 1, where Grad represents the gradient from the plots of integrated fluorescence intensity vs absorbance at three concentrations and q is the refractive index of the solvent. Fluorescein in 0.1 M NaOH (φfl=0.91)^3 was the reference for samples with a max absorbance up to 510 nm, where an excitation of 470 nm was used with the emission integrated between 490 to 800 nm. Rhodamine B in ethanol (φfl=0.70) was the reference for samples with a max absorbance between 511-595 nm, where an excitation of 525 nm was used with the emission integrated between 545 to 800 nm. Cresyl violet in methanol (φfl=0.54)^4 was the reference for samples with a max absorbance above 595 nm, where an excitation of 570 nm was used with the emission integrated between 590 to 800 nm.

Consider `COc1cc(OCc2ccccc2)ccc1/C=C/C1=[N+]2C(=Cc3ccc(CCC(=O)O)n3[B-]2(F)F)C(C)=C1` [BAA-21a], for which the “Stokes Shift” value was determined as 26 nm, the “λmax ABS” value worked out at 585 nm, the “λmax EM” value was 611 nm and the “FWHM (full-width-at half max)” value is listed as 46. Further, the “φfl (quantum yield)” value is given as 0.51.
The corresponding values for `COc1cc(OCc2ccccc2)ccc1/C=C(/CC(=O)O)c1ccc2n1[B-](F)(F)[N+]1=C(/C=C/c3ccc(OCc4ccccc4)cc3OC)C=C(C)C1=C2` [BAA-21b] are 20 nm, 588 nm, 608 nm, 50 and 0.54.
Regarding `COc1cc(/C=C/C2=[N+]3C(=Cc4ccc(CCC(=O)O)n4[B-]3(F)F)C(C)=C2)ccc1OCc1ccc(F)cc1` [BAA-22a], the “Stokes Shift” value was 17 nm, the “λmax ABS” value is 585 nm, the “λmax EM” value was 602 nm and the “FWHM (full-width-at half max)” value is reported as 49. In addition, the “φfl (quantum yield)” value came out at 0.39.
The corresponding values for `COc1cc(/C=C(/CC(=O)O)c2ccc3n2[B-](F)(F)[N+]2=C(/C=C/c4ccc(OCc5ccc(F)cc5)c(OC)c4)C=C(C)C2=C3)ccc1OCc1ccc(F)cc1` [BAA-22b] are 19 nm, 582 nm, 601 nm, 46 and 0.27.
The corresponding values for `CC1=CC(/C=C/c2ccc(-c3ccc(C(F)(F)F)cn3)cc2)=[N+]2C1=Cc1ccc(CCC(=O)O)n1[B-]2(F)F` [BAA-23a] are 11 nm, 592 nm, 603 nm, 30 and 0.23.
For `CC1=CC(/C=C/c2ccc(-c3ccc(C(F)(F)F)cn3)cc2)=[N+]2C1=Cc1ccc(/C(=C\c3ccc(-c4ccc(C(F)(F)F)cn4)cc3)CC(=O)O)n1[B-]2(F)F` [BAA-23b], the “Stokes Shift” value is 8 nm, the “λmax ABS” value worked out at 580 nm, the “λmax EM” value is 588 nm and the “FWHM (full-width-at half max)” value is 32. Moreover, the “φfl (quantum yield)” value was found to be 0.19.
The corresponding values for `CC1=CC(/C=C/c2cccc(I)c2)=[N+]2C1=Cc1ccc(/C(=C\c3cccc(I)c3)CC(=O)O)n1[B-]2(F)F` [BAA-24b] are 9 nm, 570 nm, 579 nm, 32 and 0.29.
As to `CC1=CC(/C=C/c2ccc(Oc3ccc(Cl)cc3)cc2)=[N+]2C1=Cc1ccc(/C(=C\c3ccc(Oc4ccc(Cl)cc4)cc3)CC(=O)O)n1[B-]2(F)F` [BAA-27b], the “Stokes Shift” value is listed as 13 nm, the “λmax ABS” value came out at 575 nm, the “λmax EM” value worked out at 588 nm and the “FWHM (full-width-at half max)” value is on record as 35. The “φfl (quantum yield)” value amounted to 0.33.
The corresponding values for `CC1=CC(/C=C/c2cc(Cl)ccc2Cl)=[N+]2C1=Cc1ccc(/C(=C\c3cc(Cl)ccc3Cl)CC(=O)O)n1[B-]2(F)F` [BAA-29b] are 11 nm, 569 nm, 580 nm, 37 and 0.13.
The corresponding values for `CC1=CC(C=Cc2cn(CCC(=O)O)c3ccccc23)=[N+]2C1=Cc1ccc(CCC(=O)O)n1[B-]2(F)F` [BAA-30a] are 36 nm, 607 nm, 643 nm, 58 and 0.43.
The corresponding values for `CC1=CC(C=Cc2cc(F)ccc2O)=[N+]2C1=Cc1ccc(C(=Cc3cc(F)ccc3O)CC(=O)O)n1[B-]2(F)F` [BAA-31b] are 12 nm, 576 nm, 588 nm, 34 and 0.28.
Turning to `CC1=CC(C=Cc2ccc(Oc3ccc([N+](=O)[O-])cc3)cc2)=[N+]2C1=Cc1ccc(CCC(=O)O)n1[B-]2(F)F` [BAA-32a], the “Stokes Shift” value came out at 10 nm, the “λmax ABS” value was determined as 574 nm, the “λmax EM” value is given as 584 nm and the “FWHM (full-width-at half max)” value is 32. Further, the “φfl (quantum yield)” value worked out at 0.23.
The corresponding values for `CC1=CC(C=Cc2ccc(Br)cc2S(C)(=O)=O)=[N+]2C1=Cc1ccc(CCC(=O)O)n1[B-]2(F)F` [BAA-33a] are 12 nm, 575 nm, 587 nm, 35 and 0.15.
The corresponding values for `CC1=CC(C=Cc2cnc(-c3ccc(Cl)cc3)s2)=[N+]2C1=Cc1ccc(C(=Cc3cnc(-c4ccc(Cl)cc4)s3)CC(=O)O)n1[B-]2(F)F` [BAA-34b] are 11 nm, 570 nm, 581 nm, 31 and 0.96.
As to `CC1=CC(C=Cc2ccccc2Oc2ccc(C#N)cc2)=[N+]2C1=Cc1ccc(C(=Cc3ccccc3Oc3ccc(C#N)cc3)CC(=O)O)n1[B-]2(F)F` [BAA-35b], the “Stokes Shift” value worked out at 9 nm, the “λmax ABS” value is listed as 571 nm, the “λmax EM” value turned out to be 580 nm and the “FWHM (full-width-at half max)” value is 32. Moreover, the “φfl (quantum yield)” value was determined as 0.25.
The corresponding values for `CC1=CC(C=Cc2ccc(OCc3sccc3C#N)cc2)=[N+]2C1=Cc1ccc(C(=Cc3ccc(OCc4sccc4C#N)cc3)CC(=O)O)n1[B-]2(F)F` [BAA-36b] are 13 nm, 579 nm, 592 nm, 37 and 0.35.
The corresponding values for `CC1=CC(C=Cc2ccc(-c3cccnc3)cc2)=[N+]2C1=Cc1ccc(CCC(=O)O)n1[B-]2(F)F` [BAA-37a] are 10 nm, 568 nm, 578 nm, 55 and 0.54.
Regarding `CC1=CC(C=Cc2ccc(-c3cccnc3)cc2)=[N+]2C1=Cc1ccc(C(=Cc3ccc(-c4cccnc4)cc3)CC(=O)O)n1[B-]2(F)F` [BAA-37b], the “Stokes Shift” value turned out to be 9 nm, the “λmax ABS” value was 569 nm, the “λmax EM” value is listed as 578 nm and the “FWHM (full-width-at half max)” value amounted to 30. The “φfl (quantum yield)” value came to 0.55.
In the case of `CC1=CC(C=Cc2cccc(N3CCCC3)n2)=[N+]2C1=Cc1ccc(CCC(=O)O)n1[B-]2(F)F` [BAA-38a], the “Stokes Shift” value stood at 2 nm, the “λmax ABS” value is reported as 579 nm, the “λmax EM” value was determined as 581 nm and the “FWHM (full-width-at half max)” value was found to be 33. The “φfl (quantum yield)” value is 0.07.
Take `CC1=CC(C=Cc2ccc(Cl)nc2)=[N+]2C1=Cc1ccc(CCC(=O)O)n1[B-]2(F)F` [BAA-39a]: the “Stokes Shift” value is 51 nm, the “λmax ABS” value was 606 nm, the “λmax EM” value is recorded as 657 nm and the “FWHM (full-width-at half max)” value was 79. The “φfl (quantum yield)” value came out at 0.19.
The corresponding values for `COc1cc(C=CC2=[N+]3C(=Cc4ccc(C(=Cc5ccc(OCc6cccc(C(F)(F)F)c6)c(OC)c5)CC(=O)O)n4[B-]3(F)F)C(C)=C2)ccc1OCc1cccc(C(F)(F)F)c1` [BAA-40b] are 18 nm, 583 nm, 601 nm, 45 and 0.26.
Turning to `COc1cc(C=CC2=[N+]3C(=Cc4ccc(C(=Cc5ccc(OCc6ccccc6C)c(OC)c5)CC(=O)O)n4[B-]3(F)F)C(C)=C2)ccc1OCc1ccccc1C` [BAA-41b], the “Stokes Shift” value is 20 nm, the “λmax ABS” value was 582 nm, the “λmax EM” value turned out to be 602 nm and the “FWHM (full-width-at half max)” value was 47. Besides, the “φfl (quantum yield)” value stood at 0.36.
On to `CC1=CC(C=Cc2ccc(OC(=O)c3ccc(Cl)cc3Cl)cc2)=[N+]2C1=Cc1ccc(CCC(=O)O)n1[B-]2(F)F` [BAA-42a], for which the “Stokes Shift” value is 10 nm, the “λmax ABS” value was 570 nm, the “λmax EM” value came to 580 nm and the “FWHM (full-width-at half max)” value was 30. For the same molecule, the “φfl (quantum yield)” value amounted to 0.36.
The corresponding values for `CC1=CC(C=Cc2ccc(OC(=O)c3ccc(Cl)cc3)cc2)=[N+]2C1=Cc1ccc(CCC(=O)O)n1[B-]2(F)F` [BAA-43a] are 10 nm, 569 nm, 579 nm, 31 and 0.45.
